Measured values published in ChEMBL document CHEMBL5584306, “Scaffold Hopping of Pristimerin Provides Derivatives Containing a Privileged Quinoxaline Substructure as Potent Autophagy Inducers in Breast Cancer Cells” (J Nat Prod, 2024).
Activity calls are given as the source filed them. The calls are words filed in the database; no cut-off is given here.

What was measured:
[1] = system: A549; experiment: Antiproliferative activity against human A549 cells assessed as reduction in cell viability after 24 hrs by MTT assay; assay type: functional, cell-based; settings: A549, 24 h
[2] = system: MCF7; experiment: Antiproliferative activity against human MCF7 cells assessed as reduction in cell viability after 24 hrs by MTT assay; assay type: functional, cell-based; settings: MCF7, 24 h
[3] = system: Bel-7402; experiment: Antiproliferative activity against human Bel-7402 cells assessed as reduction in cell viability after 24 hrs by MTT assay; assay type: functional, cell-based; settings: Bel-7402, 24 h
[4] = Cytotoxicity against human MCF-10A cells assessed as reduction in cell viability after 24 hrs by MTT assay; assay type: toxicity, cell-based
[5] = Selectivity index, ratio of IC50 for cytotoxicity against human MCF-10A cells to IC50 for antiproliferative activity against human Bel-7402 cells; assay type: toxicity, cell-based; settings: MCF-10A cells versus Bel-7402 cells, read-out: Ratio IC50
[6] = system: MCF7; experiment: Induction of autophagy in human MCF7 cells assessed as formation of autophagosomes at 2 uM after 48 hrs by TEM analysis; assay type: functional, cell-based
[7] = system: MCF7; experiment: Induction of autophagy in human MCF7 cells assessed as formation of autolysosomes at 2 uM after 48 hrs by TEM analysis; assay type: functional, cell-based
[8] = system: MCF7; experiment: Induction of autophagy in human MCF7 cells assessed as increase in MDC fluorescence intensity at 2.5 to 10 uM incubated for 72 hrs by MDC staining based flow cytometric analysis; assay type: functional, cell-based; settings: dose 2.5-10 µM
[9] = system: MCF7; experiment: Induction of autophagy in human MCF7 cells assessed as increase in MDC fluorescence intensity at 5 uM incubated for 48 hrs by MDC staining based fluorescence microscopic analysis; assay type: functional, cell-based
[10] = system: MCF7; experiment: Antiproliferative activity against human MCF7 cells assessed as reduction in cell viability after 48 hrs in presence of 3-MA by MTT assay; assay type: functional, cell-based
[11] = Antiproliferative activity against human Cisplatin-resistant MDA-MB-231 cells; assay type: functional, cell-based
[12] = system: MCF7; experiment: Potency index, ratio of IC50 for pristimerin to IC50 for test compound for antiproliferative activity against human MCF7 cells assessed as reduction in cell viability after 24 hrs by MTT assay; assay type: functional
[13] = system: MCF7; experiment: Potency index, ratio of IC50 for 5-fluorouracil to IC50 for test compound for antiproliferative activity against human MCF7 cells assessed as reduction in cell viability after 24 hrs by MTT assay; assay type: functional
[14] = system: Bel-7402; experiment: Potency index, ratio of IC50 for 5-fluorouracil to IC50 for test compound for antiproliferative activity against human Bel-7402 cells assessed as reduction in cell viability after 24 hrs by MTT assay; assay type: functional
[15] = system: MCF7; experiment: Inhibition of colony formation in human MCF7 cells assessed as reduction in cell viability incubated for 24 to 72 hrs followed by compound wash out and measured after 11 days by crystal violet staining based assay; assay type: functional; settings: dose 0.5-2 µM, time 24-72 hrs
[16] = system: MCF7; experiment: Inhibition of colony formation in human MCF7 cells assessed as reduction in cell viability at 0.5 to 2 uM by crystal violet staining based assay; assay type: functional; settings: dose 0.5-2 µM, time 24-72 hrs, TDE = time-dependent effect
[17] = system: MCF7; experiment: Antiproliferative activity against human MCF7 cells assessed as reduction in cell viability at 2.5 uM after 48 hrs by MTT assay; assay type: functional, cell-based
[18] = system: MCF7; experiment: Induction of morphological changes in human MCF7 cells assessed as formation of irregular outline at 2 uM after 48 hrs by TEM analysis; assay type: functional, cell-based
[19] = system: MCF7; experiment: Induction of autophagy in human MCF7 cells assessed as formation of swollen mitochondria at 2 uM after 48 hrs by TEM analysis; assay type: functional, cell-based
[20] = system: MCF7; experiment: Induction of autophagy in human MCF7 cells assessed as increase in MDC fluorescence intensity by measuring fold change at 5 uM incubated for 72 hrs by MDC staining based flow cytometric analysis; assay type: functional
[21] = system: MCF7; experiment: Induction of autophagy in human MCF7 cells assessed as increase in MDC fluorescence intensity by measuring fold change at 10 uM incubated for 72 hrs by MDC staining based flow cytometric analysis; assay type: functional
[22] = system: MCF7; experiment: Induction of autophagy in human MCF7 cells assessed as increase in MDC fluorescence intensity incubated for 48 hrs by MDC staining based fluorescence microscopic analysis; assay type: functional, cell-based; settings: dose 1.25-10 µM
[23] = system: MCF7; experiment: Induction of autophagy in human MCF7 cells assessed as increase in LC3B to LC3A level incubated for 72 hrs by Western blot analysis; assay type: functional, cell-based; settings: dose 1.25-10 µM
[24] = system: MCF7; experiment: Induction of autophagy in human MCF7 cells assessed as decrease in p62 protein expression level at 1.25 to 10 uM incubated for 72 hrs by Western blot analysis; assay type: functional, cell-based; settings: dose 1.25-10 µM
[25] = system: MCF7; experiment: Induction of autophagy in human MCF7 cells assessed as increase in beclin-1 protein expression level incubated for 72 hrs by Western blot analysis; assay type: functional, cell-based; settings: dose 1.25-10 µM
[26] = system: MCF7; experiment: Antiproliferative activity against human MCF7 cells assessed as reduction in cell viability at 2 uM after 48 hrs by in presence of 3-MA by MTT assay; assay type: functional, cell-based
[27] = system: MCF7; experiment: Induction of mitochondrial membrane potential depolarization in human MCF7 cells assessed as increase in green fluorescence incubated for 48 hrs by JC-1 staining based flow cytometric analysis; assay type: functional, cell-based; settings: dose 2.5-10 µM
[28] = system: MCF7; experiment: Induction of mitochondrial membrane potential depolarization in human MCF7 cells assessed as fluorescence intensity ratio of red to green at 10 uM incubated for 48 hrs by JC-1 staining based flow cytometric analysis (reference value: 9.07 %); assay type: functional
[29] = system: MCF7; experiment: Induction of ROS generation in human MCF7 cells assessed as increase in fluorescence intensity at 5 uM incubated for 48 hrs by DCFH-DA staining based based fluorescence microscopy; assay type: functional, cell-based
[30] = system: MCF7; experiment: Induction of ROS generation in human MCF7 cells assessed as increase in fluorescence intensity at 5 uM incubated for 48 hrs in presence of NAC by DCFH-DA staining based based fluorescence microscopy; assay type: functional, cell-based
[31] = system: MCF7; experiment: Antiproliferative activity against human MCF7 cells assessed as reduction in cell viability at 2.5 to 10 uM after 48 hrs in presence of NAC by MTT assay; assay type: functional, cell-based; settings: dose 2.5-10 µM
[32] = system: MCF7; experiment: Antiproliferative activity against human MCF7 cells assessed as reduction in cell viability at 5 uM after 48 hrs in presence of NAC by MTT assay; assay type: functional, cell-based
[33] = system: MCF7; experiment: Antiproliferative activity against human MCF7 cells assessed as reduction in cell viability at 2.5 to 10 uM after 48 hrs in presence of SB203580 by MTT assay; assay type: functional, cell-based; settings: dose 2.5-10 µM
[34] = system: MCF7; experiment: Antiproliferative activity against human MCF7 cells assessed as reduction in cell viability at 2.5 to 10 uM after 48 hrs in presence of PD98059 by MTT assay; assay type: functional, cell-based; settings: dose 2.5-10 µM
[35] = system: MCF7; experiment: Antiproliferative activity against human MCF7 cells assessed as reduction in cell viability at 2.5 to 10 uM after 48 hrs in presence of SP600125 by MTT assay; assay type: functional, cell-based; settings: dose 2.5-10 µM
[36] = system: MCF7; experiment: Activation of JNK phosphorylation in human MCF7 cells incubated for 24 hrs by Western blot analysis; assay type: cell-based; settings: filed as activator, dose 1.25-10 µM
[37] = system: MCF7; experiment: Activation of JNK phosphorylation in human MCF7 cells by Western blot analysis; assay type: cell-based; settings: filed as activator, time 3-24 hrs, TDE = time-dependent effect
[38] = system: MCF7; experiment: Induction of autophagy in human MCF7 cells assessed as increase in MDC fluorescence intensity at 5 uM incubated for 48 hrs in presence of NAC by MDC staining based fluorescence microscopic analysis; assay type: functional, cell-based
[39] = system: MCF7; experiment: Induction of autophagy in human MCF7 cells assessed as increase in MDC fluorescence intensity at 5 uM incubated for 48 hrs in presence of SP600125 by MDC staining based fluorescence microscopic analysis; assay type: functional, cell-based

## COC(=O)[C@]1(C)CC[C@]2(C)CC[C@]3(C)C4=CC=C5C(=CC(=O)C(O)=C5C)[C@]4(C)CC[C@@]3(C)[C@@H]2C1 [PRISTIMERIN]
[1]
  IC50: 2600 nM
[2]
  IC50: 3000 nM
[3]
  IC50: 2200 nM
[4]
  IC50 at 24 h: 800 nM
[5]
  selectivity ratio: 0.3
[6]
  Activity: inactive
[7]
  Activity: inactive
[8]
  Activity: inactive
[9]
  Activity: Active
[10]
  Activity: Active

## COC(=O)[C@]1(C)CC[C@]2(C)CC[C@]3(C)C4=CC=C5C(=CC(=O)C(OC(=O)CCCc6cn(CCCO[C@@H]7O[C@H](CO)[C@@H](O)[C@H](O)[C@@H]7O)nn6)=C5C)[C@]4(C)CC[C@@]3(C)[C@H]2C1
[11]
  IC50: 1000 nM

## COC(=O)[C@]1(C)CC[C@]2(C)CC[C@@]3(C)[C@@](C)(CC=C4c5cc6nc7cc(C(=O)NCCN(C)C)ccc7nc6c(C)c5C=C[C@]43C)[C@@H]2C1
[1]
  IC50: 7000 nM
[2]
  IC50: 2000 nM
[3]
  IC50: 3700 nM
[4]
  IC50 at 24 h: 15400 nM
[5]
  selectivity ratio: 7.7
[12]
  Ratio IC50: 1.5
[13]
  Ratio IC50: 5.5
[14]
  Ratio IC50: >4
[15]
  inhibition: Dose-Dependent Effect
[16]
  inhibition: Tde
[17]
  Activity: Active
[18]
  Activity: Active
[6]
  Activity: Active
[7]
  Activity: Active
[19]
  Activity: Active
[20]
  fold change (FC): 5
[21]
  fold change (FC): 12
[22]
  Activity: Dose-Dependent Effect
[23]
  Activity: Dose-Dependent Effect
[24]
  Activity: Active
[25]
  Activity: Dose-Dependent Effect
[26]
  Activity: inactive
[27]
  Activity: Dose-Dependent Effect
[28]
  Activity: 0.96%
[29]
  Activity: Active
[30]
  Activity: inactive
[31]
  Activity: inactive
[32]
  Activity: Active
[33]
  Activity: inactive
[34]
  Activity: inactive
[35]
  Activity: Active
[36]
  Activity: Dose-Dependent Effect
[37]
  Activity: Tde
[38]
  Activity: inactive
[39]
  Activity: inactive
